Values quoted from earlier work in US5807732A, “GDP-L-fucose: β-D-galactoside 2-α-L-fucosyltransferases, DNA sequences encoding the same, method for producing the same and a method of genotyping a person” (priority 1995, dated 1998).
Values joined by “and” are separate entries in the source; they are usually repeats but may differ in a detail not shown here. Equal entries are not always repeated. Where two headings read alike, the source gives them in different places.

T1: H α(1,2)fucosyltransferase (Homo sapiens, UniProt P19526)
T1 sequence (P19526 1-365): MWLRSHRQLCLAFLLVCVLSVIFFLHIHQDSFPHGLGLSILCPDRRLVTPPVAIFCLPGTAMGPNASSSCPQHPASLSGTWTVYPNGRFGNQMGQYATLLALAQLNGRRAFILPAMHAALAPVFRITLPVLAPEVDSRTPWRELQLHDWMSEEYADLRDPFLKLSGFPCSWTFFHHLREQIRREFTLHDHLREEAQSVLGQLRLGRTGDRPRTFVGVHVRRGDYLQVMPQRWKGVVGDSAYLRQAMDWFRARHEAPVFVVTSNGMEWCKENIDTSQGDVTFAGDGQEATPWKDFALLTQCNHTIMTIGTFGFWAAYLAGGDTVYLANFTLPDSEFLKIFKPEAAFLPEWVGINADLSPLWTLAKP

B1: H blood group cDNA-encoded α(1,2)fucosyltransferase: human H blood group (FUT1) α(1,2)fucosyltransferase expressed from cDNA in COS-7 cells (protein, UniProt P19526 1-365, looked up)
Galactoside …: T1 sequence (P19526 1-365)

Legend:
[1] = tested on: Secretor α(1,2)fucosyltransferase; details: read-out: Apparent Km
[2] = target: T1, H α(1,2)fucosyltransferase; details: enzyme H; literature values; read-out: Apparent Km
[3] = tested on: transfected COS-7 cells; details: expressed in COS-7 cells
[4] = enzyme Secretor, literature values

Row | Molecule | Km [1, 4] | Km [2] | also measured
1 | C[C@@H]1O[C@H](OP(=O)(O)OP(=O)(O)OC[C@H]2O[C@@H](n3cnc4c(=O)[nH]c(N)nc43)[C@H](O)[C@@H]2O)[C@@H](O)[C@H](O)[C@@H]1O [GDP-fucose] | 108 µM and 123 µM | – | –
2 | COC1O[C@H](CO)[C@@H](O)[C@H](O[C@@H]2O[C@H](CO)[C@H](O)[C@H](O)[C@H]2O)[C@H]1NC(C)=O (stereo partly drawn) [lacto-N-biose I (--O--Me)] | 1400 µM | 3500 µM | –
3 | CC(=O)N[C@H]1C(O)O[C@H](CO)[C@@H](O)[C@@H]1O[C@@H]1O[C@H](CO)[C@H](O)[C@H](O)[C@H]1O (stereo partly drawn) [lacto-N-biose I] | 1000 µM | 2000 µM | –
4 | CC(=O)N[C@H]1[C@H](O[C@H]2[C@@H](O)[C@@H](CO)O[C@@H](O[C@H]3[C@H](O)[C@@H](O)C(O)O[C@@H]3CO)[C@@H]2O)O[C@H](CO)[C@@H](O)[C@@H]1O[C@@H]1O[C@H](CO)[C@H](O)[C@H](O)[C@H]1O (stereo partly drawn) [lacto-N-tetraose] | 1600 µM | – | –
5 | OC[C@H]1O[C@@H](Oc2ccccc2)[C@H](O)[C@@H](O)[C@H]1O [phenyl-β-D-galactoside] | – | – | Km ([1]; human Secretor α(1,2)fucosyltransferase partially purified from human milk): 15100 µM; Km ([1]; human Secretor α(1,2)fucosyltransferase purified from human serum): 11400 µM
6 | B1 | – | – | distribution of α(1,2)fucosyltransferase activity between cells and media [3]: largely cell-associated
